Values quoted from earlier work, collected in PMC7984856 (European journal of medicinal chemistry, 2021).

System: catalepsy in rats
Conditions: previous in vivo behavioral studies, ref [29]

SMILES: Fc1ccc(CCCCN2CCN(c3ccccn3)CC2)cc1 [Compound 2, 1-(4-(4-fluorophenyl)butyl)-4-(pyridin-2-yl)piperazine]
- propensity to cause catalepsy: low propensity to cause catalepsy
